Experimental findings from patent US4698327A, “Novel glycopeptide derivatives” (priority 1986, dated 1987) are described below.

The test system of one test is Escherichia coli N10. Nature of the test: MIC, standard agar-dilution assay. In kind it is cell-based.
In test [1] the test system is Klebsiella pneumoniae KAE. Put plainly: MIC, standard agar-dilution assay. In kind it is cell-based.
The test system of test [2] is Haemophilus influenzae 76. Put plainly: MIC, standard agar-dilution assay. The test is classed as cell-based.
Test [3] concerns Staphylococcus epidermidis 222. Nature of the test: MIC, standard agar-dilution assay. The test is classed as cell-based.
Test [4] relates to Streptococcus sp. group D 2041. Nature of the test: MIC, standard agar-dilution assay. The test is classed as cell-based.
The test system of test [5] is Klebsiella pneumoniae X68. Put plainly: MIC, standard agar-dilution assay. In kind it is cell-based.
The subject of test [6] is Streptococcus pyogenes C203. Put plainly: MIC, standard agar-dilution assay. In kind it is cell-based.
Test [7] concerns Haemophilus influenzae C.L. Put plainly: MIC, standard agar-dilution assay. In kind it is cell-based.
Test [8] has as its system Klebsiella pneumoniae X26. Nature of the test: MIC, standard agar-dilution assay. In kind it is cell-based.
In test [9] the test system is Streptococcus faecium ATCC 9790. Put plainly: MIC, standard agar-dilution assay. The test is classed as cell-based.
For another test, the system named is Escherichia coli TEM. Put plainly: MIC, standard agar-dilution assay. The test is classed as cell-based.
In the next test the test system is Escherichia coli EC14. Put plainly: MIC, standard agar-dilution assay. The test is classed as cell-based.
In test [10] the test system is Streptococcus pneumoniae Park 1. The test is classed as cell-based. Particulars: agar dilution.
Test [11] deals with Staphylococcus epidermidis EPI1. In kind it is cell-based. Particulars: agar dilution. On the technique in general: In agar dilution the substance is mixed into plates at graded concentrations.
The subject of test [12] is Staphylococcus aureus X400. Put plainly: MIC, standard agar-dilution assay. In kind it is cell-based.
Test [13] concerns Staphylococcus aureus NRRL B313. To be noted: agar dilution.
Test [14] concerns Staphylococcus aureus V41. Nature of the test: MIC, standard agar-dilution assay. The test is classed as cell-based.
For test [15], the system named is Staphylococcus aureus S13E. In kind it is cell-based. To be noted: agar dilution.

Values after ≈ are worked out from the molar mass of the structure shown. Where only a bound is given, the exact number is not on record here.

As to `CCCCCCCCCCNC1(C)CC(OC2C(Oc3c4cc5cc3Oc3ccc(cc3Cl)C(O)C(NC(=O)C(CC(C)C)N(C)CCCCCCCCCC)C(=O)NC(CC(N)=O)C(=O)NC5C(=O)NC3C(=O)NC(C(=O)NC(C(=O)O)c5cc(O)cc(O)c5-c5cc3ccc5O)C(O)c3ccc(c(Cl)c3)O4)OC(CO)C(O)C2O)OC(C)C1O` (stereo not drawn) [Compound 4, N^van, N^leu --di(n-decyl)vancomycin], the MIC against Escherichia coli N10 is > 128 µg/mL; in [1], > 128 µg/mL; in test [2], > 128 µg/mL; in test [3], 4 µg/mL (≈ 2.31 µM); in test [4], 4 µg/mL (≈ 2.31 µM); in [5] it was > 128 µg/mL. Besides, the MIC in test [6] was 2 µg/mL (≈ 1.16 µM); in [7] it was > 128 µg/mL; in test [8], > 128 µg/mL; in [9], 4 µg/mL (≈ 2.31 µM); against Escherichia coli TEM, > 128 µg/mL; against Escherichia coli EC14 it was > 128 µg/mL. Also, the MIC in [10] stood at 4 µg/mL (≈ 2.31 µM); in [11], 16 µg/mL (≈ 9.25 µM); in [12], 4 µg/mL (≈ 2.31 µM); in test [13], 2 µg/mL (≈ 1.16 µM); in [14], 4 µg/mL (≈ 2.31 µM); in test [15] it was 4 µg/mL (≈ 2.31 µM).
`CCCCCCCCCNC1(C)CC(OC2C(Oc3c4cc5cc3Oc3ccc(cc3Cl)C(O)C(NC(=O)C(CC(C)C)N(C)CCCCCCCCC)C(=O)NC(CC(N)=O)C(=O)NC5C(=O)NC3C(=O)NC(C(=O)NC(C(=O)O)c5cc(O)cc(O)c5-c5cc3ccc5O)C(O)c3ccc(c(Cl)c3)O4)OC(CO)C(O)C2O)OC(C)C1O` (stereo not drawn) [Compound 6, N^van, N^leu --di(n-nonyl)vancomycin]: the MIC with Escherichia coli N10 was > 128 µg/mL; in test [1], > 128 µg/mL; in test [2] it was > 128 µg/mL; in [3], 2 µg/mL (≈ 1.18 µM); in test [4], 2 µg/mL (≈ 1.18 µM); in [5], > 128 µg/mL. Moreover, the MIC in [6] was 1 µg/mL (≈ 0.588 µM); in [7], > 128 µg/mL; in [8], > 128 µg/mL; in test [9], 1 µg/mL (≈ 0.588 µM); in the test with Escherichia coli TEM, > 128 µg/mL; in the test on Escherichia coli EC14, > 128 µg/mL. For the same compound, the MIC in [10] turned out to be 2 µg/mL (≈ 1.18 µM); in test [11], 4 µg/mL (≈ 2.35 µM); in [12], 1 µg/mL (≈ 0.588 µM); in test [13], 1 µg/mL (≈ 0.588 µM); in test [14], 1 µg/mL (≈ 0.588 µM); in test [15] it was 2 µg/mL (≈ 1.18 µM).
On to `CCCCCCCCNC1(C)CC(OC2C(Oc3c4cc5cc3Oc3ccc(cc3Cl)C(O)C(NC(=O)C(CC(C)C)N(C)CCCCCCCC)C(=O)NC(CC(N)=O)C(=O)NC5C(=O)NC3C(=O)NC(C(=O)NC(C(=O)O)c5cc(O)cc(O)c5-c5cc3ccc5O)C(O)c3ccc(c(Cl)c3)O4)OC(CO)C(O)C2O)OC(C)C1O` (stereo not drawn) [Compound 9, N^van, N^leu --di(n-octyl)vancomycin], for which the MIC against Escherichia coli N10 is > 128 µg/mL; in test [1] it was > 128 µg/mL; in [2], > 128 µg/mL; in test [3], 2 µg/mL (≈ 1.19 µM); in test [4], 2 µg/mL (≈ 1.19 µM); in test [5], > 128 µg/mL. In addition, the MIC was 0.5 µg/mL (≈ 0.299 µM) in test [6]; > 128 µg/mL in test [7]; > 128 µg/mL in [8]; 1 µg/mL (≈ 0.597 µM) in test [9]; > 128 µg/mL with Escherichia coli TEM; > 128 µg/mL with Escherichia coli EC14. In addition, the MIC in test [10] came to 1 µg/mL (≈ 0.597 µM); in test [11], 4 µg/mL (≈ 2.39 µM); in test [12] it was 1 µg/mL (≈ 0.597 µM); in test [13], 1 µg/mL (≈ 0.597 µM); in [14] it was 1 µg/mL (≈ 0.597 µM); in [15] it was 1 µg/mL (≈ 0.597 µM).
On to `CCCCCCCNC1(C)CC(OC2C(Oc3c4cc5cc3Oc3ccc(cc3Cl)C(O)C3NC(=O)C(NC(=O)C5NC(=O)C(CC(N)=O)NC(=O)C(NC(=O)C(CC(C)C)NC)C(O)c5ccc(c(Cl)c5)O4)c4ccc(O)c(c4)-c4c(O)cc(O)cc4C(C(=O)O)NC3=O)OC(CO)C(O)C2O)OC(C)C1O` (stereo not drawn) [Compound 10, N^van --(n-heptyl)vancomycin], for which the MIC against Escherichia coli N10 is > 128 µg/mL; in test [1], > 128 µg/mL; in [2], 128 µg/mL (≈ 82.7 µM); in [3] it was 1 µg/mL (≈ 0.646 µM); in test [4] it was 1 µg/mL (≈ 0.646 µM); in [5], > 128 µg/mL. Besides, the MIC in test [6] is 0.5 µg/mL (≈ 0.323 µM); in test [7] it was 128 µg/mL (≈ 82.7 µM); in test [8], > 128 µg/mL; in test [9], 0.5 µg/mL (≈ 0.323 µM); against Escherichia coli TEM it was > 128 µg/mL; in the test on Escherichia coli EC14 it was > 128 µg/mL. For the same compound, the MIC in test [10] was determined as 0.125 µg/mL (≈ 0.0808 µM); in test [11], 2 µg/mL (≈ 1.29 µM); in [12], 0.5 µg/mL (≈ 0.323 µM); in test [13] it was 0.25 µg/mL (≈ 0.162 µM); in test [14], 0.5 µg/mL (≈ 0.323 µM); in test [15], 0.5 µg/mL (≈ 0.323 µM).
With `CCCCCCCNC1(C)CC(OC2C(Oc3c4cc5cc3Oc3ccc(cc3Cl)C(O)C(NC(=O)C(CC(C)C)N(C)CCCCCCC)C(=O)NC(CC(N)=O)C(=O)NC5C(=O)NC3C(=O)NC(C(=O)NC(C(=O)O)c5cc(O)cc(O)c5-c5cc3ccc5O)C(O)c3ccc(c(Cl)c3)O4)OC(CO)C(O)C2O)OC(C)C1O` (stereo not drawn) [Compound 12, N^van, N^leu --di(n-heptyl)vancomycin], the MIC in the test on Escherichia coli N10 is > 128 µg/mL; in test [1], > 128 µg/mL; in test [2] it was 128 µg/mL (≈ 77.8 µM); in test [3] it was 1 µg/mL (≈ 0.608 µM); in test [4], 1 µg/mL (≈ 0.608 µM); in [5], > 128 µg/mL. For the same compound, the MIC in test [6] is 0.5 µg/mL (≈ 0.304 µM); in test [7], > 128 µg/mL; in [8], > 128 µg/mL; in test [9] it was 1 µg/mL (≈ 0.608 µM); against Escherichia coli TEM it was > 128 µg/mL; with Escherichia coli EC14, > 128 µg/mL. Further, the MIC in [10] came out at 0.5 µg/mL (≈ 0.304 µM); in test [11], 2 µg/mL (≈ 1.22 µM); in test [12], 1 µg/mL (≈ 0.608 µM); in test [13], 0.5 µg/mL (≈ 0.304 µM); in [14], 1 µg/mL (≈ 0.608 µM); in [15] it was 1 µg/mL (≈ 0.608 µM).
For the compound `CCCCCCNC1(C)CC(OC2C(Oc3c4cc5cc3Oc3ccc(cc3Cl)C(O)C3NC(=O)C(NC(=O)C5NC(=O)C(CC(N)=O)NC(=O)C(NC(=O)C(CC(C)C)NC)C(O)c5ccc(c(Cl)c5)O4)c4ccc(O)c(c4)-c4c(O)cc(O)cc4C(C(=O)O)NC3=O)OC(CO)C(O)C2O)OC(C)C1O` (stereo not drawn) [Compound 13, N^van --(n-hexyl)vancomycin], the MIC was > 128 µg/mL against Escherichia coli N10; > 128 µg/mL in test [1]; 128 µg/mL (≈ 83.5 µM) in test [2]; 1 µg/mL (≈ 0.652 µM) in test [3]; 1 µg/mL (≈ 0.652 µM) in test [4]; > 128 µg/mL in test [5]. Also, the MIC in test [6] was 0.5 µg/mL (≈ 0.326 µM); in test [7], 128 µg/mL (≈ 83.5 µM); in test [8], > 128 µg/mL; in [9] it was 1 µg/mL (≈ 0.652 µM); in the test with Escherichia coli TEM, > 128 µg/mL; against Escherichia coli EC14, > 128 µg/mL. Moreover, the MIC in test [10] was 0.125 µg/mL (≈ 0.0815 µM); in [11], 2 µg/mL (≈ 1.3 µM); in [12], 1 µg/mL (≈ 0.652 µM); in [13], 0.5 µg/mL (≈ 0.326 µM); in test [14], 1 µg/mL (≈ 0.652 µM); in test [15], 0.5 µg/mL (≈ 0.326 µM).
